Among the test systems are EKVX NSCLC; SF-268 CNS; RPMI-8226 leukemia; SNB-75 CNS; OVCAR-5 ovarian; OVCAR-3 ovarian; CCRF-CEM leukemia; OVCAR-4 ovarian; HOP-62 NSCLC; U251 CNS.
Common to all, as to experiment: NCI anticancer screen, dose series, 48 h

SMILES strings stand for the structures.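 Interpolation was linear, between the two tested concentrations surrounding the appropriate level; five concentrations were tested over 48 hours in 96-well plates. At the GI50, growth is halved. TGI is the concentration that stops growth completely.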 A value given as a limit tells only on which side of the number the result lay.

As to `CCCn1c(SC)nc(COC(=O)NC)c1COC(=O)NC`, the TGI in the assay on EKVX NSCLC, with SF-268 CNS, in the assay with RPMI-8226 leukemia, in the assay on SNB-75 CNS, with OVCAR-5 ovarian and with OVCAR-3 ovarian was more than 100 µM in each case. Moreover, the TGI in the assay on CCRF-CEM leukemia, in the assay with OVCAR-4 ovarian and in the assay with HOP-62 NSCLC was more than 100 µM in each case.
Turning to `O=C(/C(=C\C(=O)c1cccs1)c1ccsc1)c1ccc(Br)cc1`, the TGI with EKVX NSCLC, with SF-268 CNS, in the assay with RPMI-8226 leukemia, in the assay on SNB-75 CNS, in the assay on U251 CNS and in the assay on CCRF-CEM leukemia was more than 100 µM throughout. This compound gave a TGI in the assay on HOP-62 NSCLC of more than 100 µM.
For the compound `CCOC(=O)C1=C(C(=O)c2ccc(C)cc2)C(c2cccc([N+](=O)[O-])c2)C(C(=O)c2ccc(C)cc2)=C(C(=O)OCC)N1`, the TGI in the assay on EKVX NSCLC was 47.1 µM; with SF-268 CNS, 46.1 µM; in the assay with SNB-75 CNS, more than 100 µM; in the assay with OVCAR-5 ovarian, 34.7 µM; in the assay on U251 CNS it was 25.8 µM; with OVCAR-3 ovarian it was 28.8 µM. Further, the figures for the TGI in the assay with CCRF-CEM leukemia, with OVCAR-4 ovarian and in the assay on HOP-62 NSCLC were 8.57 µM, 84.6 µM and 41 µM, respectively.
For the compound `O=C(Nc1cccc([N+](=O)[O-])c1)C(=O)C(C(=O)c1ccccc1-c1ccccc1)C1OC(=O)c2ccccc21` (stereo not given), the TGI with EKVX NSCLC was found to be 59.1 µM; in the assay on SF-268 CNS, 75.8 µM; with RPMI-8226 leukemia, 60.3 µM; in the assay with SNB-75 CNS, 64.8 µM; in the assay on OVCAR-5 ovarian, 39.5 µM; with U251 CNS it was 27.7 µM. In addition, the TGI in the assay with OVCAR-3 ovarian was found to be 36.4 µM; in the assay with CCRF-CEM leukemia, 99 µM; in the assay on HOP-62 NSCLC it was 33.9 µM.
With `COc1ccc(-c2cc(=O)c3c(C)cc(C)nc3[nH]2)cc1`, the TGI in the assay on EKVX NSCLC is more than 100 µM; in the assay on SF-268 CNS it was more than 100 µM; with RPMI-8226 leukemia, 54.6 µM; with OVCAR-5 ovarian, more than 100 µM; in the assay with U251 CNS, more than 100 µM; in the assay on OVCAR-3 ovarian, more than 100 µM. Further, the figures for the TGI in the assay on CCRF-CEM leukemia, in the assay with OVCAR-4 ovarian and in the assay with HOP-62 NSCLC were 43.2 µM, more than 100 µM and more than 100 µM, respectively. The GI50 in the assay on U251 CNS is 90.7 µM; with OVCAR-3 ovarian, 32.7 µM.
For `O=C(O)COc1ccc(O)c2c1C(=O)CCCC2=O`, the TGI with EKVX NSCLC, in the assay with SF-268 CNS, in the assay with RPMI-8226 leukemia, in the assay with OVCAR-5 ovarian, in the assay on U251 CNS and in the assay with OVCAR-3 ovarian was more than 100 µM each time. Moreover, the TGI in the assay on CCRF-CEM leukemia, in the assay with OVCAR-4 ovarian and in the assay with HOP-62 NSCLC was more than 100 µM in each case.
With `CO/C(=N\N=C\c1cccc(Cl)c1)c1ccncc1`, the TGI in the assay with EKVX NSCLC, in the assay with SF-268 CNS, in the assay with RPMI-8226 leukemia, with OVCAR-5 ovarian, in the assay with U251 CNS and with OVCAR-3 ovarian was more than 10 µM in each case. The TGI in the assay with CCRF-CEM leukemia, with OVCAR-4 ovarian and in the assay with HOP-62 NSCLC was more than 10 µM throughout.
With `NC1CCCCC1.[O]=[Ge].[O]=[Ge].[O]=[Ge][OH].[O]=[Ge][OH]`, the TGI in the assay with EKVX NSCLC, in the assay with SF-268 CNS, with RPMI-8226 leukemia, in the assay on SNB-75 CNS, in the assay on OVCAR-5 ovarian and with OVCAR-3 ovarian was more than 100 µM in each case. The TGI in the assay on CCRF-CEM leukemia, with OVCAR-4 ovarian and in the assay on HOP-62 NSCLC was more than 100 µM in each case.
Turning to `O=C(c1ccc(Cl)cc1)c1ccc(OCCCCCCCCCCOc2ccc(C(=O)c3ccc(Cl)cc3)cc2)cc1`, the TGI with EKVX NSCLC, in the assay on SF-268 CNS, in the assay on RPMI-8226 leukemia, in the assay with SNB-75 CNS, in the assay on OVCAR-5 ovarian and in the assay with U251 CNS was more than 100 µM throughout. The TGI in the assay with OVCAR-3 ovarian, in the assay on CCRF-CEM leukemia and in the assay with HOP-62 NSCLC was more than 100 µM throughout.
Take `CCCCS(=O)CCC(N)C(=O)O` (stereo not given): the TGI in the assay with EKVX NSCLC, in the assay on SF-268 CNS, with SNB-75 CNS, in the assay on OVCAR-5 ovarian, in the assay with U251 CNS and in the assay on OVCAR-3 ovarian was more than 100 µM each time. Moreover, the TGI in the assay with CCRF-CEM leukemia, in the assay with OVCAR-4 ovarian and in the assay on HOP-62 NSCLC was more than 100 µM throughout.
Turning to `CC(=O)Nc1ccc(C(=O)NN2C(=O)C(Cl)C2c2ccc([N+](=O)[O-])cc2)cc1` (stereo not given), the TGI in the assay on EKVX NSCLC, in the assay with SF-268 CNS, in the assay on SNB-75 CNS, with OVCAR-5 ovarian, in the assay with U251 CNS and in the assay on OVCAR-3 ovarian was more than 100 µM each time. The TGI in the assay on CCRF-CEM leukemia, in the assay on OVCAR-4 ovarian and in the assay with HOP-62 NSCLC was more than 100 µM each time.
`CCOC(=O)/C(O)=C/c1cc(OC)cc(=O)o1`: the TGI in the assay with EKVX NSCLC, in the assay on SF-268 CNS, in the assay on RPMI-8226 leukemia, in the assay on SNB-75 CNS, in the assay with OVCAR-5 ovarian and in the assay with U251 CNS was more than 100 µM in each case. Moreover, the TGI in the assay on OVCAR-3 ovarian, in the assay on CCRF-CEM leukemia and in the assay with OVCAR-4 ovarian was more than 100 µM in each case.
Take `Nc1nc2c(c(=O)[nH]1)NC(CO)CN2` (stereo not given): the TGI in the assay with EKVX NSCLC, in the assay with RPMI-8226 leukemia, in the assay on SNB-75 CNS, in the assay on U251 CNS, in the assay on OVCAR-3 ovarian and in the assay with CCRF-CEM leukemia was more than 100 µM each time. This compound displayed a TGI in the assay on HOP-62 NSCLC of more than 100 µM.
With `CCCCc1c2c(nc3c1CCc1cc4cc5c(nc4nc1-3)-c1nc3c(c(CCCC)c1CC5)CCCC3)CCCC2`, the TGI in the assay on EKVX NSCLC, in the assay with SF-268 CNS, with RPMI-8226 leukemia, with SNB-75 CNS, with U251 CNS and with CCRF-CEM leukemia was more than 100 µM each time. The compound further had a TGI in the assay on HOP-62 NSCLC of more than 100 µM.
Turning to `CCc1cccc(C(C)C)c1NC(=O)C(=O)CC(=O)c1c(C)n([O-])c2ccccc2[n+]1=O`, the TGI with EKVX NSCLC, with SF-268 CNS, with RPMI-8226 leukemia, in the assay with SNB-75 CNS, in the assay on OVCAR-5 ovarian and in the assay with U251 CNS was more than 100 µM throughout. For the same compound, the TGI in the assay on CCRF-CEM leukemia, in the assay on OVCAR-4 ovarian and with HOP-62 NSCLC was more than 100 µM each time.
For the compound `CC(=O)N[C@@H]1C(O)CN2C(=O)C(=O)O[C@H](C(O)CO)[C@@H]12` (stereo not given in full), the TGI with EKVX NSCLC, in the assay with SF-268 CNS, in the assay with RPMI-8226 leukemia, in the assay on SNB-75 CNS, with OVCAR-5 ovarian and in the assay on U251 CNS was more than 100 µM each time. The TGI in the assay with OVCAR-3 ovarian, in the assay with CCRF-CEM leukemia and in the assay on HOP-62 NSCLC was more than 100 µM each time.

Source of the values: PubChem BioAssay (NCI).
